These results are taken from patent US9132191B2, “Compositions and methods of preventing or ameliorating abnormal thrombus formation and cardiovascular disease” (Yale University, priority 2011, dated 2015).

The IC50 is the concentration that inhibits the measured activity by half.

Molecules are shown by their SMILES.

One assay concerns washed platelet. Briefly: Aggregometry of washed platelets incubated with AR inhibitors (Example 12). It counts as cell-based. As to conditions: Homo sapiens, 10 μM inhibitor, 1 hour at 37° C., collagen 1 μg/mL, light transmission 5 min, read-out: % reduction (platelet aggregation, light transmission). How it is done: Platelet-poor plasma (PPP) was obtained by centrifugation of the rest of the blood at 1400 g at 25° C. for 10 min. The PRP was adjusted with PPP to 2−3×10^8 platelets/mL suspensions. For the washed platelets, PRP was obtained by centrifugation at 250 g for 15 min, and platelets were sedimented at 1,000 g for 15 min, and then resuspended in washing buffer (103 mmol/L NaCl, 5 mmol/L KCl, 1 mmol/L MgCl2, 5 mmol/L glucose, 36 mmol/L citric acid) at pH 6.5 containing 3.5 mg/mL bovine serum albumin (Sigma). After sedimentation, the platelets were washed twice in this buffer and resuspended at 2−3×10^8 platelets/mL in the buffer composed of 5 mmol/L HEPES, 137 mmol/L NaCl, 2 mmol/L KCl, 1 mmol/L MgCl2, 12 mmol/L NaHCO3, 0.3 mmol/L NaH2PO4, 5.5 mmol/L glucose, pH 7.4, containing 3.5 mg/mL BSA (Saxena et al., 1989, Science 243:1596-1599).
Washed platelet (1×10^8) were incubated with AR inhibitors for 1 hour at 37° C. For aggregometry studies, 0.5 μL of collagen solution (with a final concentration of 1 μg/mL) was added into 500 μL of washed platelet, and then the light transmission was measured for 5 min. […] The percentage of platelet aggregation, as measured in terms of light transmission, is summarized in FIG. 17, and representative tracings are depicted in FIG. 18.

Another assay deals with aldose reductase (Homo sapiens, UniProt P15121). The note with it: aldose reductase inhibitor IC50; no method given; cited from earlier work.
Assay [1] concerns human platelets. Put plainly: Collagen-induced platelet aggregation (light transmission, Lumi-aggregometer). It counts as cell-based. The note with it: NG or HG 90 min; 1 μg/mL collagen; SB239063 50 μmol/L, U73122 5 μmol/L, quercetin 10 μmol/L, SQ29548 10 μmol/L, NAC, apocynin 100 μmol/L. How it is done: Venous blood was drawn from volunteers at Yale University Medical School, free from medication known to interfere with platelet function. […] PRP was obtained by centrifugation of blood at 250 g at 37° C. for 15 min and the platelet count in the PRP was estimated by an automated cell counter.
Platelet-poor plasma (PPP) was obtained by centrifugation of the rest of the blood at 1400 g at 25° C. for 10 min. The PRP was adjusted with PPP to 2−3×10^8 platelets/mL suspensions.
Platelet aggregation was monitored at 37° C. with constant stirring (1,200 rpm) in a dual-channel Lumi-aggregometer (Chrono-Log model 700). Platelet aggregation was measured as the increase in light transmission for 10 min, starting with the addition of 0.5 μL of 1 mg/mL collagen (Chrono-Log) as a proaggregatory stimulus. For measuring ADP-stimulated platelet aggregation, 1 μM ADP (Chrono-Log) was used. The maximum aggregation was expressed as percentage of maximum light transmission, with non-stimulated platelet-rich plasma being 0% and platelet-poor plasma 100%.

Assay [2] concerns human platelets. Put plainly: Oxidative stress and superoxide level in collagen-stimulated platelets. Format: cell-based. As to conditions: NG and HG, epalrestat 10 μmol/L, 10 mmol/L NAC, 100 μmol/L apocynin. How it is done:
The oxidative stress and superoxide level was measured by a commercial kit according to the manufacturer's instruction (Total ROS/Superoxide Detection Kit, Enzo Life Sciences). Platelets were sedimented by centrifugation at 400 g for 5 min, and then washed. The washed platelets were incubated with 1 μmol/L ROS/Superoxide detection mix for 60 min at 37° C. in the presence or absence of 1 μg/mL collagen.

The subject of the next assay is p38α MAPK. Put plainly: p38α MAPK phosphorylation in collagen-stimulated platelets (phospho-kinase array, Western blot). Format: cell-based, human. The note with it: NG and HG; 1 μg/mL collagen 10 min; epalrestat 10 μmol/L, U73122, NAC 1 mmol/L, quercetin 10 μmol/L. Here is the method: Platelets were homogenized in the lysis buffer (25 mmol/L Tris HCl, pH 7.6, 150 mmol/L NaCl, 1% NP-40, 1% sodium deoxycholate, 0.1% SDS) with the addition of 0.1% protease inhibitor and 0.1% phosphatase inhibitor (Thermo Scientific). The supernatant was collected after centrifugation at 13,000 rpm for 15 min at 4° C. The samples are loaded in 4×SDS-Laemmli sample buffers and boiled for 10 min. Equal amounts of total extracts were subjected to SDS-PAGE. The proteins were transferred to nitrocellulose membrane and probed with the indicated antibodies, and the antigen-antibody complex was detected by enhanced chemiluminescence reagents (Thermo Scientific).
(§1) Primary antibodies against the following proteins were diluted and used according to the manufacturer's instructions: AR (sc-17732, Santa Cruz Biotechnology), PKC α (sc-208, Santa Cruz Biotechnology) and its phosphorylated form (sc-136018, Thr638, Santa Cruz Biotechnology), PKC βII (NB110-57358, Novus Biologicals) and its phosphorylated form (NSB964, Thr641, Novus Biologicals), PKC δ (2058, Cell Signaling) and its phosphorylated form (9376, Ser643, Cell Signaling), PLC-γ1 (H00005335-A01, Novus Biologicals) and its phosphorylated form (07866, Tyr783, Millipore), PLC-γ2 (NB110-66669, Novus Biologicals) and its phosphorylated form (NB110-57424, Tyr1217, Novus Biologicals), p38α MAPK (9212, Cell Signaling) and its phosphorylated form (AF869, T180/Y182, R&D Systems), and TX receptor (NBP1-40198, Novus Biologicals). Secondary antibodies against rabbit and mouse IgG (Thermo Scientific) were diluted 1:5000 before use. The membrane was re-probed with antibodies against Na^+/K^+-ATPase (NB300-147, Novus Biologicals), a plasma membrane marker, and GAPDH (sc-20357, Santa Cruz Biotechnology), a cytoplasmic marker, for normalization.
The human phospho-kinase array was performed according to the manufacturer's instruction (R&D Systems). […] The signals for the amount of phosphorylated proteins bound were measured by the chemiluminescent detection method.
In general terms: A western blot detects proteins with antibodies after separation by electrophoresis.

Assay [3] deals with thromboxane receptor (TP). Put plainly: Surface expression of thromboxane receptor in collagen-stimulated platelets. It counts as cell-based, human. The note with it: HG; 1 μg/mL collagen; epalrestat 10 μmol/L, NAC, apocynin. Here is the method: as §1
Platelets were sedimented by centrifugation at 2,500 g for 5 min. The membrane and cytosolic fractions of total extracts were separated using the subcellular protein fractionation kit (Thermo Scientific). […]

Assay [4] deals with human platelets. Put plainly: Thromboxane biosynthesis (TXB2 EIA in platelet supernatant). Format: cell-based. The note with it: NG or HG; 1 μg/mL collagen; U73122 5 μmol/L, SB239063 50 μmol/L, SQ29548 10 μmol/L. How it is done: Platelets were sedimented by centrifugation at 2,500 g for 5 min, and the supernatant was harvested for the measurement of TX levels. Since TXA2 is rapidly hydrolyzed into TXB2, the level of TXB2 was measured using TXB2 EIA kit according to the manufacturer's ELISA instructions (Cayman Chemical).

The next assay addresses T1, platelet COX-1 (Homo sapiens, UniProt P23219).
T1 construct: in whole blood allowed to clot for 1 h at 37° C; (serum TXB2) which is an index of maximal capacity of platelets; endogenous in cells; host or cells: platelets in whole blood of diabetic patients and healthy subjects
Put plainly: Residual serum TXB2 generation in clotted whole blood (index of platelet COX-1 activity). It counts as cell-based.

T1 sequence (P23219 24-599): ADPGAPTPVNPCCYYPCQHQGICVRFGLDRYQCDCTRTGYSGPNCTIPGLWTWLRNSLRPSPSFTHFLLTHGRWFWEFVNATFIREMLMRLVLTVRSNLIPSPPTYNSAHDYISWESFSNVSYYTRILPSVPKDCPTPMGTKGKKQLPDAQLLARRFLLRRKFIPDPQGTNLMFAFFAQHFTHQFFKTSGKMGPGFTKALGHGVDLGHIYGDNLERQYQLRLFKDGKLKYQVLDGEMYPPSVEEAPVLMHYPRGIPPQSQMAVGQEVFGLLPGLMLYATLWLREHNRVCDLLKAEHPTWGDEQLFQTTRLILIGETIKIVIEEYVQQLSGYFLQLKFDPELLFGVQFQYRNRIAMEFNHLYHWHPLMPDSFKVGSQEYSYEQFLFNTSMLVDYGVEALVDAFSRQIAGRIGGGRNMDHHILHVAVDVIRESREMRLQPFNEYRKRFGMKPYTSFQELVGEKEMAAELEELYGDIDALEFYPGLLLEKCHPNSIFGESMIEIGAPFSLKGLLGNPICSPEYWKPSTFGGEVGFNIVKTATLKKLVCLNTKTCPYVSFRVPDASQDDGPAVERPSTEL
Description for platelet COX-1: Patients with the presence of type 2 diabetes (n=102) were recruited from the Hospital Policlinico G.B. Rossi (Verona, Italy) and San Pio da Pietrelcina Hospital (Vasto, Italy). Exclusion criteria included concurrent cancer, inflammatory disorder, immunological disorder, surgery or major trauma in the previous month or use of nonsteroidal anti-inflammatory drugs (NSAIDs) or corticosteroids in the previous month. Both the diabetic population and the severe cardiovascular disease population were chronically treated with low dose aspirin for at least one month (enteric coated aspirin 100 mg for at least 7 consecutive days). After recruitment the patients received a standard oral dose of 100 mg for seven days at 8.00 pm. […] The 10 healthy subjects recruited were from the staff of Hospital Policlinico G.B. Rossi (Verona Italy) with normal ECG and echocardiograms and no evidence of atherosclerosis by carotid artery sonography. The healthy subjects were all treated with aspirin 100 mg daily for 1 week.
(serum TXB2) which is an index of maximal capacity of platelets to generate TXB2.
In order to verify whether in these patients higher generation of platelet TXB2 was due to the phenomenon of aspirin resistance which implies that the aspirin target, i.e., COX-1, is less sensitive to inactivation by aspirin, residual generation of TXB2 was assessed after adding aspirin (50 μg/mL) in vitro.

As to `O=C1CC2(C(=O)N1)C(=O)N(Cc1ccc(Br)cc1F)C(=O)c1ccc(F)cc12` (racemic) [IDD 62, (±)-2-(4-Bromo-2-fluorobenzyl)-6-fluorospiro[1,2,3,4-tetrahydroisoquinoline-4,3′-pyrrolidine]-1,2′,3,5′-tetraone], in the assay with washed platelet, the inhibition at 10 µM was 59%.

`O=C1NC(=O)[C@@]2(CCOc3ccc(F)cc32)N1` [IDD 60, (4S)-6-Fluoro-2,3-dihydro-2′H,5′H-spiro[chromene-4,4′-imidazolidine]-2′,5′-dione]: the inhibition at 10 µM in the assay with washed platelet turned out to be 67%.

On to `COc1ccc2c(C(=S)N(C)CC(=O)O)cccc2c1C(F)(F)F` [IDD 63, N-{[6-methoxy-5-(trifluoromethyl)-1-naphthyl]carbothioyl}-N-methylglycine], for which the inhibition at 10 µM in the assay with washed platelet stood at 78%.

With `O=C(O)Cc1nn(Cc2nc3cc(C(F)(F)F)ccc3s2)c(=O)c2ccccc12` [IDD 65, 3,4-Dihydro-4-oxo-3-[[5-(trifluoromethyl)-2-benzothiazolyl]methyl]-1-phthalazineacetic acid], in the assay with washed platelet, the inhibition at 10 µM was found to be 50%.

In the case of `CCCCCOc1ccc(C2SC(=O)NC2=O)cc1OCC` (centres unmarked) [IDD 73, 5-[3-Ethoxy-4-(pentyloxy)phenyl]-2,4-thiazolidinedione], at aldose reductase, the IC50 was 0.294 µM. In addition, in the assay on washed platelet, the inhibition at 10 µM is 54%.

As for `O=C(O)Cn1c(=O)n(Cc2ccc(Br)cc2F)c(=O)c2ccc(Cl)cc21` [IDD 148, 3-(2-Fluoro-4-bromobenzyl)-7-chloro-2,4(1H,3H)-dioxoquinazoline-1-acetic acid], the inhibition at 10 µM with washed platelet was found to be 61%.

For `O=C(O)CN1C(=O)C(=O)N(Cc2cccc([N+](=O)[O-])c2)C1=O` [IDD 314, 3-(3-nitrobenzyl)-2,4,5-trioxoimidazolidine-1-acetic acid], the IC50 at aldose reductase was 0.718 µM. In addition, the inhibition at 10 µM with washed platelet came to 52%.

As to `O=C(O)Cn1cc(Cc2nc3c(F)c(F)cc(F)c3s2)c2ccccc21` [IDD 676, [3-(4,5,7-Trifluorobenzothiazol-2-ylmethyl)indol-1-yl]acetic acid], the inhibition at 10 µM in the assay on washed platelet came out at 54%.

With `CC(=O)N[C@@H](CS)C(=O)O` [NAC, N-acetyl-cysteine], the “collagen-induced platelet aggregation (signalling inhibitors)” value in the assay with human platelets [1] is on record as “attenuated the collagen-induced platelet aggregation to a similar extent as ARI”. Also, the “level of oxidative stress and superoxide” value with human platelets [2] is recorded as “significantly reduced”. Besides, the “collagen-induced phosphorylation of p38α MAPK (Western blot)” value (shortened to “collagen-induced phosphorylation”) in the assay on p38α MAPK is reported as “significantly reduced”. Also, in assay [3], the “surface expression of TX receptor (TP)” value is “significantly attenuated”.

For `COc1nccc(-c2c(-c3ccc(F)cc3)ncn2[C@H]2CC[C@H](O)CC2)n1` [SB239063, trans-4-[4-(4-fluorophenyl)-5-(2-methoxy-4-pyrimidinyl)-1H-imidazol-1-yl]cyclohexanol], the “collagen-induced TXB2 (TXA2) release (signalling inhibitors)” value in the assay on human platelets [4] was “attenuated the collagen-induced TXB2 release”. Further, in the assay on human platelets [1], the “collagen-induced platelet aggregation (signalling inhibitors)” value is listed as “reduced platelet aggregation”.

On to `O=C(O)CCC/C=C\C[C@@H]1[C@H](CNNC(=O)Nc2ccccc2)[C@H]2CC[C@@H]1O2` [SQ29548, 1S-[1-alpha,2-beta-(5Z),3-beta,4-alpha]-7-[3-[[2-[(phenylamino)carbonyl]hydrazino]methyl]-7-oxabicyclo[2.2.1]hept-2-yl]-5-heptenoic acid], for which the “collagen-induced TXB2 (TXA2) release (signalling inhibitors)” value in the assay with human platelets [4] is given as “attenuated collagen-induced TXA2 release”. Also, in the assay with human platelets [1], the “collagen-induced platelet aggregation (signalling inhibitors)” value is reported as “attenuated the collagen-induced platelet aggregation”.

Turning to `COc1ccc2c(c1)CC[C@@H]1[C@@H]2CC[C@]2(C)[C@@H](NCCCCCCN3C(=O)C=CC3=O)CC[C@@H]12` [U73122], the “collagen-induced TXB2 (TXA2) release (signalling inhibitors)” value with human platelets [4] is given as “attenuated the collagen-induced TXB2 release”. Also, in the assay with human platelets [1], the “collagen-induced platelet aggregation (signalling inhibitors)” value was “reduced platelet aggregation”. Further, in the assay on p38α MAPK, the “collagen-induced phosphorylation” value is “significantly reduced”.

On to `COc1cc(C(C)=O)ccc1O` [apocynin], for which the “collagen-induced platelet aggregation (signalling inhibitors)” value in the assay with human platelets [1] is “attenuated the collagen-induced platelet aggregation to a similar extent as ARI”. Also, the “level of oxidative stress and superoxide” value in the assay on human platelets [2] is on record as “significantly reduced”. The “surface expression of TX receptor (TP)” value in assay [3] is reported as “significantly attenuated”.

As for `CC(=O)Oc1ccccc1C(=O)O` [aspirin, Acetylsalicylic Acid], the “diabetic patients with residual TXB2 levels higher than 4 ng/mL with aspirin in vitro” value at platelet COX-1 (aspirin 50 μg/mL added in vitro) was determined as 2%. Also, the “residual TXB2 generation after adding aspirin in vitro” value at platelet COX-1 (aspirin 50 μg/mL in vitro, diabetic patients and healthy subjects on aspirin 100 mg/day, blood clotted 1 h at 37° C.) is on record as “further significant reduction”. At platelet COX-1 (ex vivo, 12 h after the last dose of aspirin 100 mg/day), the “diabetic patients with residual serum TXB2 higher than 4 ng/mL” value was determined as 12%.

As for `O=c1c(O)c(-c2ccc(O)c(O)c2)oc2cc(O)cc(O)c12` [quercetin], the “collagen-induced platelet aggregation (signalling inhibitors)” value with human platelets [1] was “reduced platelet aggregation”. The “collagen-induced phosphorylation” value in the assay with p38α MAPK is given as “attenuated”.
